Measured values published in patent publication US7199143B2, “Chemical compounds” (AstraZeneca AB, priority 2002, dated 2007).
In brackets after ≈: the same amount, converted by molar mass.

Legend:
[1] = system: Staphylococcus aureus MSQS (methicillin sensitive and quinolone sensitive); test: MIC, agar-dilution, staphylococci; assay type: cell-based; details: 10^4 CFU/spot, 37° C., 24 hours
Procedure: (§1) The following results were obtained on a standard in-vitro test system. The activity is described in terms of the minimum inhibitory concentration (MIC) determined by the agar-dilution technique with an inoculum size of 10^4 CFU/spot. Typically, compounds are active in the range 0.01 to 256 μg/ml.
(§2) Staphylococci were tested on agar, using an inoculum of 10^4 CFU/spot and an incubation temperature of 37° C. for 24 hours—standard test conditions for the expression of methicillin resistance.

[2] = system: Staphylococcus aureus MRQR (methicillin resistant and quinolone resistant); test: MIC, agar-dilution, staphylococci; assay type: cell-based; details: 10^4 CFU/spot, 37° C., 24 hours
Procedure: as §1, §2

[3] = system: Moraxella catarrhalis; test: MIC, fastidious Gram negative organisms, Mueller-Hinton broth; assay type: cell-based; details: Mueller-Hinton broth with hemin and NAD, 24 hours, 5×10^4 CFU/well
Procedure: as §1
(§3) Streptococci and enterococci were tested on agar supplemented with 5% defibrinated horse blood, an inoculum of 10^4 CFU/spot and an incubation temperature of 37° C. in an atmosphere of 5% carbon dioxide for 48 hours—blood is required for the growth of some of the test organisms. Fastidious Gram negative organisms were tested in Mueller-Hinton broth, supplemented with hemin and NAD, grown aerobically for 24 hours at 37° C., and with an innoculum of 5×10^4 CFU/well.

[4] = system: Haemophilus influenzae; test: as above; assay type: cell-based; details: Mueller-Hinton broth with hemin and NAD, 24 hours, 5×10^4 CFU/well
Procedure: as §1, §3

[5] = molecular target: T1, MAO-A (Homo sapiens, UniProt P21397); test: MAO-A standard in-vitro assay, human liver enzyme expressed in yeast; assay type: biochemical
T1 construct: made in house; host or cells: yeast
T1 sequence (P21397 1-527): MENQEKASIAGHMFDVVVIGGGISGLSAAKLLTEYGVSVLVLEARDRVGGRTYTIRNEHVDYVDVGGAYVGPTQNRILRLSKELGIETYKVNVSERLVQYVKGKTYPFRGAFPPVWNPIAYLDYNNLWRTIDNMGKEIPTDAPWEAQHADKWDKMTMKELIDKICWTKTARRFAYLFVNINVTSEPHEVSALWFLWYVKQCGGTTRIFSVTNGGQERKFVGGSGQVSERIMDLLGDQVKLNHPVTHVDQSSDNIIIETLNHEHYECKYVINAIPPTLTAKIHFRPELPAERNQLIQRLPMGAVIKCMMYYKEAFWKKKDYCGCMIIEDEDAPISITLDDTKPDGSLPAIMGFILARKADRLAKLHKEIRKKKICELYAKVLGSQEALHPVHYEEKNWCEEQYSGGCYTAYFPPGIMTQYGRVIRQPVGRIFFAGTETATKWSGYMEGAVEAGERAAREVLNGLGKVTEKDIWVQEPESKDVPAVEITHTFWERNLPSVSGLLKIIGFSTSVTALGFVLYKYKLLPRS
Procedure: The activity of the compounds of the invention against MAO-A was tested using a standard in-vitro assay based on human liver enzyme expressed in yeast as described in Biochem. Biophys. Res. Commun. 1991, 181, 1084–1088.

[6] = system: Streptococcus pneumoniae; test: MIC, agar with 5% defibrinated horse blood; assay type: cell-based; details: agar + 5% horse blood, 5% carbon dioxide, 48 hours
Procedure: as §1, §3

[7] = system: Streptococcus pyogenes; test: MIC, agar with 5% defibrinated horse blood; assay type: cell-based; details: agar + 5% horse blood, 5% carbon dioxide, 48 hours
Procedure: as §1, §3

MIC [1]: 4 µg/mL (≈ 9.27 µM)
MIC [2]: 8 µg/mL (≈ 18.5 µM)
MIC [3]: 4 µg/mL (≈ 9.27 µM)
MIC [4]: 2 µg/mL (≈ 4.64 µM)
Ki [5]: > 410 µM
MIC [6]: 2 µg/mL
MIC [7]: 2 µg/mL
SMILES: [N-]=[N+]=NCc1cn(C[C@H]2CN(c3ccc(C4=CC[S+]([O-])CC4)c(F)c3)C(=O)O2)nn1 (stereo partly drawn) [Example 3, (5R)-3-[4-(1(R,S)-Oxo-3,6-dihydro-2H-thiopyran-4-yl)-3-fluorophenyl]-5-[(4-azidomethyl)-1,2,3-triazol-1-ylmethyl]oxazolidin-2-one]
